The source made the active and inactive calls.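 Rule for the calls: active = fitted curve crossing a set activation limit at or below the highest valid dose tested; inconclusive = flat fit at 30 to 70% activation, or poor fit; inactive = the rest, including signal decreases.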
Test system: D54 ERlucT glycosylation luciferase reporter, luminescence, 24 h
Experiment: blockers of NLG process in reporter cells – D54 ERlucT cells, luminescence, cherry-picks, dose response (AID 624491);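 note: signal gain reflects blocked N-linked glycosylation of a luciferase reporter; actives raise luciferase signal so AC26 marks activators of the reporter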

Structure (SMILES)	AC26
CCn1c2ccccc2c2cc(NC(=O)CNCc3ccccc3OC)ccc21	1.36 µM
CN1CCc2nc3sc(C#N)c(N)c3c(-c3cccs3)c2C1	0.261 µM
O=C(NCCCn1ccnc1)c1cc(-c2ccccc2)on1	3.17 µM
COc1ccccc1N1CCN(C(=O)c2oc3ccccc3c2C)CC1	8 µM
CCCNC(=O)c1ccccc1NC(=O)c1ccc2c(c1)NC(=O)C(C)S2 (stereo unspecified)	1.45 µM
COc1ccc(C)cc1NC(=O)CCCNC(=O)Cn1cnc2sc(C)c(C)c2c1=O	7.09 µM
CCN(CC)CCCNc1nc2cc(OC)c(OC)cc2c2nc(-c3ccccc3)nn12	0.811 µM
COc1ccc(NC(=O)CSc2c3c(nc4ccccc24)CCCC3)c(OC)c1	9.24 µM
CCn1c2ccccc2c2cc(NC(=O)COC(=O)Cc3cn4ccsc4n3)ccc21	1.79 µM
CCOc1cc(/C=C/C(=O)c2ccc3c(c2)OCCO3)ccc1OCC(=O)N(C)C	3.7 µM
Cc1ccc2oc(C(=O)NCc3ncc(C)[nH]3)c(C)c2c1	6.75 µM
COc1ccccc1N1CCN(S(=O)(=O)CCNC(=O)c2cc(OC)c(OC)c(OC)c2)CC1	3.85 µM
Cc1nn(C(C)(C)C)c(OC(=O)c2ccc3c(c2)OCO3)c1Sc1ccccc1	3.07 µM
Cc1ccc(CC(=O)NCc2ccc(F)cc2)cc1	0.824 µM
CN(C)CCCN1C(=O)c2cccc3c(Br)ccc(c23)C1=O	0.871 µM
COc1cc(C2c3cc4c(cc3OC(Nc3ccc(C(=O)O)cc3)C2C)OCO4)cc(OC)c1OC (stereo unspecified)	10.7 µM
COc1ccccc1/C=N/NC(=O)CSc1cc(C)nc2ccccc12	2.94 µM
COc1ccc(N2CCc3c(C)nc4c(OC)cc(OC)cc4c32)cc1	3.77 µM
Cc1cc(NC(=O)CSc2nc3c(C)cccc3cc2C#N)no1	3.32 µM
O=C(C=Cc1cccc(O)c1)c1ccccc1O	3.29 µM
Cc1ccc2nc(/C(C#N)=C/c3cn[nH]c3-c3ccc(F)cc3)[nH]c2c1	1.17 µM
CCCn1c(CN2CCN(C(=O)OCC)CC2)nc2cc(NC(=O)CC)ccc21	9.15 µM
CCOc1ccc(Nc2nc(N(C)c3ccccc3)nc(N)c2[N+](=O)[O-])cc1	0.0921 µM

Structure (SMILES)	AC26
CCn1c(=O)c2cc(C(=O)NCCN(C)C)sc2c2ccccc21	5.23 µM
COc1cc(/C=C/C(=O)/C=C(O)/C=C/c2ccc(O)c(OC)c2)ccc1O	2.09 µM
CCN(CC)CCCNc1cc(C)c(C#N)c2nc3ccccc3n12	17 µM
COC(=O)c1cc(=O)n(-c2ccccc2)c(=Nc2ccccc2)s1	10.8 µM
Cc1ccc(S/C=C\C(=O)c2ccccc2)cc1	3.17 µM
O=C(/C=C/c1cccc(Br)c1)c1ccc2c(c1)OCO2	7.47 µM
O=C1CCCN1CCCNc1nc(NCc2ccccc2)nc2ccsc12	4.24 µM
O=C(N/N=C/c1ccc(Cl)cc1)c1cc(-c2cccnc2)nc2ccccc12	0.417 µM
O=C(CSc1nnc(-c2cc3ccccc3cc2O)n1Cc1ccco1)N1CCc2ccccc2C1	0.702 µM
COc1cc(C(=O)N/N=C/c2cc([N+](=O)[O-])cs2)cc(OC)c1OC	0.349 µM
Cc1cccc(C)c1OCCNC(=O)C(=O)NCc1ccco1	1.71 µM
Cc1ccc2cc(CN(CCCN(C)C)C(=O)NCc3ccccc3)c(=O)[nH]c2c1C	0.0691 µM
Cc1nnc2c(NCCC(C)C)nc3ccccc3n12	6.08 µM
CN1/C(=C/C=C(/C#N)C(N)=O)C(C)(C)c2ccccc21	0.0556 µM
CNC(=O)c1cccn(Cc2ccc(C(F)(F)F)cc2)c1=O	3.37 µM
CCN(CC)c1ccc(NC(=O)CC2Oc3ccccc3NC2=O)c(C)c1 (stereo unspecified)	11.6 µM
Cc1ccccc1NS(=O)(=O)c1ccc2c3c(cccc13)C(=O)N2C	3.4 µM
CC(/C=N/NC(=O)c1cc(-c2ccccc2)nc2ccccc12)=C\c1ccco1	2.04 µM
O=C(N/N=C/c1cccnc1)c1cc(-c2ccccc2OCc2ccccc2)n[nH]1	1.89 µM
CSCCOC(=O)c1[nH]c2c(c1C)C(=O)CC(c1ccco1)C2 (stereo unspecified)	0.526 µM
c1ccc(N=Nc2ccc3cccccc2-3)cc1	2.06 µM
CCNc1oc(/C=C/c2ccc(OCC)cc2)nc1C#N	> 19.5 µM (inactive)
Fc1ccc(CSc2ccc3nnc(-c4cccnc4)n3n2)cc1	0.403 µM

Reference: PubChem BioAssay AID624491 (Broad Institute, 2012)
